In EP1100483B1, “GLUCOCORTICOID-SELECTIVE ANTI-INFLAMMATORY AGENTS” (Abbott Laboratories, priority 1998, dated 2000):

biological target: T1, human glucocorticoid receptor-α [GRX] isoform (Homo sapiens, UniProt P04150); assay: glucocorticoid receptor (GR) cytosol binding assay, [3H]-dexamethasone competition; conditions: not given
T1 construct: purchased Ligand Pharmaceuticals (San Diego, CA); host or cells: insect SF21 cells (baculovirus)
T1 sequence (P04150 1-777): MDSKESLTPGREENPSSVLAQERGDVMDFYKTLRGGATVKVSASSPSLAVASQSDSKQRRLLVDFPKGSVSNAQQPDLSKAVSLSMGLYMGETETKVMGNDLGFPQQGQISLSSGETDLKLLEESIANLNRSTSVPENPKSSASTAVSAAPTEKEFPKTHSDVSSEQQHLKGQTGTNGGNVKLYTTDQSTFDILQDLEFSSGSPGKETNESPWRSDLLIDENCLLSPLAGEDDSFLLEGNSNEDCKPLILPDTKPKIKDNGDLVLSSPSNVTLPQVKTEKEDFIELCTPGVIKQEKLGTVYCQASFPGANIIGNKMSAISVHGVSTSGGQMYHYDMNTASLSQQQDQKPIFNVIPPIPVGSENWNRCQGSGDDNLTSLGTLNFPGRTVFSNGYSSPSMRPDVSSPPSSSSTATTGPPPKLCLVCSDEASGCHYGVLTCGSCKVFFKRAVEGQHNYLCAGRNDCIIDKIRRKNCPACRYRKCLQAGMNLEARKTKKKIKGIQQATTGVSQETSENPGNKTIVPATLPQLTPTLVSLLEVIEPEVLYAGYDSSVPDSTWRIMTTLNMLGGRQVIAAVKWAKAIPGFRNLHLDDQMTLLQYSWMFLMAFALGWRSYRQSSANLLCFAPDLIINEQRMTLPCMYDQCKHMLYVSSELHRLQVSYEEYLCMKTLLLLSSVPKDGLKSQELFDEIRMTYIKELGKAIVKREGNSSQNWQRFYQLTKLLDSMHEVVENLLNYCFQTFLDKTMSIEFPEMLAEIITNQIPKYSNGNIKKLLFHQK
Text: For glucocorticoid receptor (OR) cytosol binding assays, the procedure described in Anal. […] Briefly, cytosol preparations of human glucocorticoid receptor-α [GRX] isoform and human progesterone receptor-A [PRA] isoform were obtained from Ligand Pharmaceuticals (San Diego, CA). Both receptor cDNAs were cloned into baculovirus expression vectors and expressed in insect SF21 cells. […] Glass fiber type C multiscreen MAFC NOB plates were from Millipore ( Burlington, MA). Hydroxyapatide Bio-Gel HTP gel was obtained from Bio-Rad Laboratories (Hercules. CA). Tris(hydroxymethyl)aminomethane (Tris), ethylenediaminetetraacetic acid (EDTA), glycerol, dithiothreitol (DTT) and sodium moylybdate were obtained from Sigma Chemicals (St. Louis, MO). Microscint-20 scintillation fluid was obtained from Packard Instrument (Meriden, CT). […] GRX and PRA binding reactions were performed in Millipore Multiscreen plates. […] Specific binding was defined as the difference between binding of [^3H]Dex in the absence and in the presence of 1µM unlabeled Dex. After an overnight incubation, 50 µL of hydroxyapatite (25 % weight/volume) slurry were added to each well and plates were incubated for 10 min at 4 °C in a plate shaker. Plates were suctioned with a Millipore vacuum manifold and each well was rinsed with 300 µL of ice-cold binding buffer. A 250 µL aliquot of Packard Microscint-20 was added to each well and the wells were shaken at room temperature for 20 minutes. The amount of radioactivity was determined with a Packard TopCount plate reader.

Compound	Ki [nM]
CN(C)c1ccc(C(c2ccc(N(C)C)cc2)c2cc(Cl)ccc2Cl)cc1 [Example 24, 4',4" bis(dimethylamino)-2,5-dichlorotriphenylmethane]	306
CC(=O)OCCN(C)c1ccc(C(c2ccc(N(C)C)cc2)c2cc([N+](=O)[O-])ccc2Cl)cc1 (stereo not shown) [Example 51, 4'-dimethylamino-4"-(N-methyl-N-(2-acetoxyethyl)amino)-2-chloro-5-nitrotriphenylmethane]	167
CN(C)c1ccc(C(c2ccc(N(C)CCO)cc2)c2cc([N+](=O)[O-])ccc2Cl)cc1 (stereo not shown) [Example 42, 4'-dimethylamino-4"-(N-methyl-N-(2-hydroxyethyl)amino)-2-chloro-5-nitrotriphenylmethane]	109
CNc1ccc(C(c2ccc(N(C)C)cc2)c2cc([N+](=O)[O-])ccc2Cl)cc1 (stereo not shown) [Example 39, 4'-dimethylamino-4"-methylamino-2-chloro-5-nitrotriphenylmethane]	127

same assay, conditions: [3H]-Dex ~0.9 nM, GRX cytosol, 4 °C overnight; Cheng-Prusoff; read-out: Ki (nM) GR

Compound	Ki [nM]
CC(=O)OCCN(C)c1ccc(C(c2ccc(N(C)CCOC(C)=O)cc2)c2cc([N+](=O)[O-])ccc2Cl)cc1 [Example 31, 4',4" bis(N-(2-acetoxyethyl) N-methylamino)-2-chloro-5-nitrotriphenylmethane]	145
CNc1ccc(C(c2ccc(N(C)CCOC(C)=O)cc2)c2cc([N+](=O)[O-])ccc2Cl)cc1 (stereo not shown) [Example 49, 4'-methylamino-4"-(N-(2-acetoxyethyl)-N-methylamino)-2-chloro-5-nitrotriphenylmethane]	135
CN(CCO)c1ccc(C(c2ccc(N(C)CCO)cc2)c2cc([N+](=O)[O-])ccc2Cl)cc1 [Example 32, 4',4" bis(N-(2-hydroxyethyl) N-methylamino)-2-chloro-5-nitrotriphenylmethane]	136
CN(C)c1ccc(C(c2ccc(N(C)C)cc2)c2cc([N+](=O)[O-])ccc2Cl)cc1 [Example 1, 4',4" bis(dimethylamino)-2-chloro-5-nitrotriphenylmethane]	272
CNc1ccc(C(c2ccc(NC)cc2)c2cc([N+](=O)[O-])ccc2Cl)cc1 [Example 23, 4',4" bis(methylamino)-2-chloro-5-nitrotriphenylmethane]	60
O=[N+]([O-])c1ccc(Cl)c(C(c2ccc(NCc3ccccc3)cc2)c2ccc(NCc3ccccc3)cc2)c1 [Example 36, 4',4" bis(N-benzylamino)-2-chloro-5-nitrotriphenylmethane]	38
CN(C)c1ccc(C(Sc2ccccc2)c2cc([N+](=O)[O-])ccc2Cl)cc1 (stereo not shown) [Example 54, phenyl-[(4'-dimethylaminophenyl)-(2-chloro-5-nitrophenyl)methyl]thioether]	227
CN(C)c1ccc(C(Oc2ccccc2)c2cc([N+](=O)[O-])ccc2Cl)cc1 (stereo not shown) [Example 52, phenyl-[(4'-dimethylaminophenyl)-(2-chloro-5-nitrophenyl)methyl] ether]	733
CNc1ccc(C(c2ccc(NC)cc2)c2cc(Cl)ccc2Cl)cc1 [Example 27, 4',4" bis(methylamino)-2,5-dichlorotriphenylmethane]	71
